Experimental data from ChEMBL document CHEMBL3407368, “Further studies on anti-invasive chemotypes: An excursion from chalcones to curcuminoids” (Bioorg Med Chem Lett, 2015).
Active and inactive are the calls of the source. The calls are words filed in the database; no cut-off is given here.

What was measured:
[1] = Antiinvasive activity against human MCF7/6 cells precultured with 9 day old chick embryo heart tissue fragment assessed as lowest concentration by chick heart invasion assay; format: functional
[2] = system: MCF7/6; test: Antiinvasive activity against human MCF7/6 cells precultured with 9 day old chick embryo heart tissue fragment at 0.1 micromol/l by chick heart invasion assay; format: functional, cell-based
[3] = system: MCF7/6; test: Antiinvasive activity against human MCF7/6 cells precultured with 9 day old chick embryo heart tissue fragment at 10 micromol/l by chick heart invasion assay; format: functional, cell-based
[4] = system: MCF7/6; test: Antiinvasive activity against human MCF7/6 cells precultured with 9 day old chick embryo heart tissue fragment at 100 micromol/l by chick heart invasion assay; format: functional, cell-based
[5] = system: MCF7/6; test: Antiinvasive activity against human MCF7/6 cells precultured with 9 day old chick embryo heart tissue fragment at 1 micromol/l by chick heart invasion assay; format: functional, cell-based
[6] = Cytotoxicity against human MCF7/6 cells at 10 umol/l; format: cell-based; conditions: mcf7/6, 10 µM
[7] = system: MCF7/6; test: Antiinvasive activity against human MCF7/6 cells precultured with 9 day old chick embryo heart tissue fragment at 0.01 micromol/l by chick heart invasion assay; format: functional, cell-based
[8] = Cytotoxicity against human MCF7/6 cells at 100 umol/l; format: cell-based; conditions: mcf7/6, 100 µM

SMILES: COc1cc(/C=C/c2ccc(F)cc2)cc(OC)c1OC
- logMIC [1]: 0

SMILES: O=C(/C=C/C=C/c1ccccc1)c1ccc(Cl)cc1
- Activity [2]: inactive
- logMIC [1]: 3
- Activity [3]: inactive
- Activity [4]: Active
- Activity [5]: Active

SMILES: C(=C\c1ccccc1)/c1ccccc1
- logMIC [1]: -1

SMILES: COc1cc(C(=O)/C=C/C=C/c2ccc(F)cc2)cc(OC)c1OC
- Activity [2]: inactive
- Activity [6]: Toxic
- logMIC [1]: 1
- Activity [3]: Active
- Activity [5]: inactive

SMILES: O=C(/C=C/c1ccc(O)cc1)CC(=O)/C=C/c1ccc(O)cc1 [BISDEMETHOXYCURCUMIN]
- Activity [2]: inactive
- Activity [6]: Toxic
- logMIC [1]: 1
- Activity [3]: Active
- Activity [5]: inactive

SMILES: O=C(/C=C/c1ccccc1)c1ccccc1 [CHALCONE]
- logMIC [1]: 1
- Activity [3]: Active
- Activity [5]: inactive

SMILES: COc1cc(/C=C\c2ccc(F)cc2)cc(OC)c1OC
- logMIC [1]: 1

SMILES: O=C(/C=C/C=C/c1ccccc1)/C=C/c1ccccc1
- Activity [2]: inactive
- Activity [7]: inactive
- Activity [8]: Toxic
- logMIC [1]: 0
- Activity [3]: Active
- Activity [4]: Active
- Activity [5]: Active

SMILES: O=C(/C=C/C=C/c1ccccc1)c1ccc(F)cc1
- Activity [2]: inactive
- Activity [7]: inactive
- Activity [8]: Toxic
- Activity [6]: Toxic
- logMIC [1]: 0
- Activity [4]: Active
- Activity [5]: Active

SMILES: O=C(/C=C/C=C/c1ccccc1)c1ccccc1
- Activity [2]: inactive
- Activity [8]: Toxic
- Activity [6]: Toxic
- logMIC [1]: 2
- Activity [3]: inactive
- Activity [4]: Active
- Activity [5]: inactive

SMILES: COc1cc(C(=O)/C=C/c2ccc(F)cc2)cc(OC)c1OC
- Activity [2]: Active
- Activity [7]: Active
- Activity [6]: Non-toxic
- logMIC [1]: -2
- Activity [3]: Active
- Activity [5]: Active

SMILES: COc1cc(/C=C/C(=O)CC(=O)/C=C/c2ccc(O)c(OC)c2)ccc1O [CURCUMIN]
- Activity [2]: inactive
- logMIC [1]: 1
- Activity [3]: Active
- Activity [5]: inactive

SMILES: COc1cc(C(=O)/C=C/C=C/c2ccccc2)cc(OC)c1OC
- Activity [2]: inactive
- Activity [7]: inactive
- Activity [8]: Toxic
- Activity [6]: Toxic
- logMIC [1]: 1
- Activity [3]: Active
- Activity [4]: Active
- Activity [5]: inactive

SMILES: O=C(/C=C/c1ccccc1)/C=C/c1ccccc1
- Activity [2]: inactive
- Activity [7]: inactive
- Activity [8]: Toxic
- logMIC [1]: 0
- Activity [3]: Active
- Activity [4]: Active
- Activity [5]: Active
